We go through ten compounds from patent US12371428B2 (Exelixis, Inc., priority 2019, dated 2025).

For assay [1], the target named is KDR (phospho-KDR, VEGF165-stimulated HUVEC cells) (Homo sapiens (Human), UniProt P35968). Put plainly: KDR autophosphorylation ELISA in HUVEC cells (Example G). Conditions: cellular activity; KDR autophosphorylation ELISA in HUVEC cells. The format is cell-based. An outline of the steps:
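HUVECs were serum-starved 24 h, given compound as an 8-point dilution series (0.3% DMSO final) for 1 h, then stimulated with 100 ng/mL VEGF165 for 5 min. Lysate phospho-KDR was quantified by sandwich ELISA against a phospho-KDR standard, and IC50s came from a 4-parameter logistic fit.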
A general note: ELISA stands for enzyme-linked immunosorbent assay.

For assay [2], the target named is Mer (phospho-Mer, MERTK-transfected 293A cells) (Homo sapiens (Human), UniProt Q12866). Put plainly: Mer autophosphorylation ELISA in transient transfected 293A cells (Example H). Type of assay: cell-based. Conditions: cellular activity; Mer autophosphorylation ELISA in transient transfected 293A cells. The gist of the method:
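293A cells transiently transfected with human MERTK were treated 1 h in serum-free medium with an 8-point compound dilution (0.3% DMSO final). Lysates were assayed by phospho-Mer sandwich ELISA against a phospho-Mer standard; IC50 came from a 4-parameter logistic fit, normalised to DMSO (100%) and reference-inhibitor (0%) controls.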

Structures are written as SMILES.

Sequence of Mer (phospho-Mer, MERTK-transfected 293A cells) (Q12866 21-999): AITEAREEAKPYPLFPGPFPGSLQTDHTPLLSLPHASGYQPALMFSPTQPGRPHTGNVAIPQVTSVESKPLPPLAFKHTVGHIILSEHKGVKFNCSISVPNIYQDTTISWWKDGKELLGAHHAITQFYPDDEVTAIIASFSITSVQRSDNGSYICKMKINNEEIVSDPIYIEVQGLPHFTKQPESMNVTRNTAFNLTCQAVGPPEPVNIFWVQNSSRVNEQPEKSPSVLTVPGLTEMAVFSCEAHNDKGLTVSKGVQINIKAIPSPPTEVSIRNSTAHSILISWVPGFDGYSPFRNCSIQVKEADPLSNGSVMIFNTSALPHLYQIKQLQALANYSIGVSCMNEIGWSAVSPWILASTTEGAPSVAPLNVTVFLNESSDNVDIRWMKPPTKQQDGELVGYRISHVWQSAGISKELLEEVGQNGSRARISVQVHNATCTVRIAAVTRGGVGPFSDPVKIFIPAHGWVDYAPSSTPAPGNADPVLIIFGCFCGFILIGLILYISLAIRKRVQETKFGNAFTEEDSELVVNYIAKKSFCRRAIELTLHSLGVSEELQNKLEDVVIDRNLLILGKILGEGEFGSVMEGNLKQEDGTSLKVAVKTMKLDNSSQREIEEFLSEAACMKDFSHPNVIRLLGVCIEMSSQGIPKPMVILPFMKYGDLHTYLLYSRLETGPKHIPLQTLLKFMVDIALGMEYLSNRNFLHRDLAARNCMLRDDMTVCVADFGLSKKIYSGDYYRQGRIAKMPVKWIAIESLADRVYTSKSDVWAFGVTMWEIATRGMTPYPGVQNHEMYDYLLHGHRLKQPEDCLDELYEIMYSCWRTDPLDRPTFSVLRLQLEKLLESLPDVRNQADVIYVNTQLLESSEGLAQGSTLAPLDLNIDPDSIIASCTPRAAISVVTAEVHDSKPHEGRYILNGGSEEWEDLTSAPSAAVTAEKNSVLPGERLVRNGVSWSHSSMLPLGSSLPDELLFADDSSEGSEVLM
Sequence of KDR (phospho-KDR, VEGF165-stimulated HUVEC cells) (P35968 20-1356): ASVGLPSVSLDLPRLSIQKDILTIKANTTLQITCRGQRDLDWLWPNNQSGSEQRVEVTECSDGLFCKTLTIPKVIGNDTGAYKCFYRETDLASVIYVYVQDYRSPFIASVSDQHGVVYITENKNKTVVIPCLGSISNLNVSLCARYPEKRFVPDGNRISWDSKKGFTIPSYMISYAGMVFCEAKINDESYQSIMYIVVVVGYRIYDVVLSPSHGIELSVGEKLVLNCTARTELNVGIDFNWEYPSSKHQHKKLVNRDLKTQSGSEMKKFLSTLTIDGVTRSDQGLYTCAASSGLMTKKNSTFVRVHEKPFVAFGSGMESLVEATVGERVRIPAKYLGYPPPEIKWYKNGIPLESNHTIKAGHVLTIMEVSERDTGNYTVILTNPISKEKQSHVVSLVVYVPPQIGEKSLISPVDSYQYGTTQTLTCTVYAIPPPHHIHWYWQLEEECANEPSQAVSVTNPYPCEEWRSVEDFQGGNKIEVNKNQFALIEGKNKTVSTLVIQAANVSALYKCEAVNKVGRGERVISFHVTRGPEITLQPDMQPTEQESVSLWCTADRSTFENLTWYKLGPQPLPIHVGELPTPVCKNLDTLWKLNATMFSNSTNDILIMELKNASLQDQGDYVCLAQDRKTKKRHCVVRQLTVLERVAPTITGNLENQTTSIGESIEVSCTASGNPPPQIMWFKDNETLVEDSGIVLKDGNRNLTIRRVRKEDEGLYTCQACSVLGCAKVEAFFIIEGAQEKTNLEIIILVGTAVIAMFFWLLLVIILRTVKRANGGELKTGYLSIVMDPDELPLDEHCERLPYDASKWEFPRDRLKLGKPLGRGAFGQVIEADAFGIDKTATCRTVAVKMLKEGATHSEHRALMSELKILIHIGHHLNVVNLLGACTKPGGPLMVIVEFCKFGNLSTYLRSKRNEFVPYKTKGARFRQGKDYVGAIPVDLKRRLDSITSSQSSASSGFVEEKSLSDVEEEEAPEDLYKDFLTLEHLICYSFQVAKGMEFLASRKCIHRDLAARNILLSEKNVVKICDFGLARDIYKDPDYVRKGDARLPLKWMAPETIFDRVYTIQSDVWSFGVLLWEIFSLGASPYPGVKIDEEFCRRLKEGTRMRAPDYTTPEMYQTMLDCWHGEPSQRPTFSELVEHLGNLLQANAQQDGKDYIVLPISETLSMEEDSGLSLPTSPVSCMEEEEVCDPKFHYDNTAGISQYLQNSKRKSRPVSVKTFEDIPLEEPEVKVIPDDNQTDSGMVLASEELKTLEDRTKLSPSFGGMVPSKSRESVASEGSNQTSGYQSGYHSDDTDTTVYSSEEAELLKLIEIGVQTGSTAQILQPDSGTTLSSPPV

As for `COc1cc2nccc(Oc3ccc(NC(=O)c4cn(C(C)C)c(C)c(-c5ccc(F)cc5)c4=O)cc3F)c2nc1OC` [Compound 21, N-[4-[(6,7-Dimethoxy-1,5-naphthyridin-4-yl)oxy]-3-fluorophenyl]-5-(4-fluorophenyl)-6-methyl-4-oxo-1-propan-2-ylpyridine-3-carboxamide], the IC50 in assay [1] and in assay [2] was below 100 nM each time.

On to `COc1cc2nccc(Oc3ccc(NC(=O)c4cn(C(C)C)c(C)c(-c5ccc(F)cc5)c4=O)cc3F)c2cc1OC` [Compound 22, N-[4-(6,7-Dimethoxyquinolin-4-yl)oxy-3-fluorophenyl]-5-(4-fluorophenyl)-6-methyl-4-oxo-1-propan-2-ylpyridine-3-carboxamide], for which the IC50 in assay [1] is 100 to 300 nM; in assay [2], below 100 nM.

Take `COc1cc2nccc(Oc3ccc(NC(=O)c4cn(C(C)C)c(C)c(-c5ccc(Cl)c(Cl)c5)c4=O)cc3F)c2cc1OC` [Compound 23, 5-(3,4-Dichlorophenyl)-N-[4-(6,7-dimethoxyquinolin-4-yl)oxy-3-fluorophenyl]-6-methyl-4-oxo-1-propan-2-ylpyridine-3-carboxamide]: the IC50 was above 300 nM in assay [1] and below 100 nM in assay [2].

`COc1cc2nccc(Oc3ccc(NC(=O)c4cn(C(C)C)c(C)c(-c5ccc(F)c(Cl)c5)c4=O)cc3F)c2nc1OC` [Compound 24, 5-(3-Chloro-4-fluorophenyl)-N-[4-[(6,7-dimethoxy-1,5-naphthyridin-4-yl)oxy]-3-fluorophenyl]-6-methyl-4-oxo-1-propan-2-ylpyridine-3-carboxamide]: the IC50 is 100 to 300 nM in assay [1] and below 100 nM in assay [2].

For `COc1cc2nccc(Oc3ccc(NC(=O)c4cn(C(C)C)c(C)c(-c5ccc(Cl)c(Cl)c5)c4=O)cc3F)c2nc1OC` [Compound 25, 5-(3,4-Dichlorophenyl)-N-[4-[(6,7-dimethoxy-1,5-naphthyridin-4-yl)oxy]-3-fluorophenyl]-6-methyl-4-oxo-1-propan-2-ylpyridine-3-carboxamide], the IC50 in assay [1] was 100 to 300 nM; in assay [2], below 100 nM.

With `COc1cc2nccc(Oc3ccc(NC(=O)c4cn(C5CCCC5)c(C)c(-c5ccc(F)cc5)c4=O)cc3F)c2nc1OC` [Compound 26], the IC50 in assay [1] and in assay [2] was below 100 nM throughout.

`COc1cc2nccc(Oc3ccc(NC(=O)c4cn(C5CCCC5)c(C)c(-c5ccc(F)c(Cl)c5)c4=O)cc3F)c2nc1OC` [Compound 27, 5-(3-Chloro-4-fluorophenyl)-1-cyclopentyl-N-[4-[(6,7-dimethoxy-1,5-naphthyridin-4-yl)oxy]-3-fluorophenyl]-6-methyl-4-oxopyridine-3-carboxamide]: the IC50 in assay [1] and in assay [2] was below 100 nM throughout.

As to `COc1cc2nccc(Oc3ccc(NC(=O)c4cn(C5CC5)cc(-c5ccc(F)cc5)c4=O)cc3F)c2nc1OC` [Compound 41, 1-Cyclopropyl-N-[4-[(6,7-dimethoxy-1,5-naphthyridin-4-yl)oxy]-3-fluorophenyl]-5-(4-fluorophenyl)-4-oxopyridine-3-carboxamide], the IC50 in assay [1] is 100 to 300 nM; in assay [2], below 100 nM.

With `COc1cc2nccc(Oc3ccc(NC(=O)c4cncc(-c5ccc(F)cc5)c4O)cc3F)c2nc1OC` [Compound 42, N-[4-[(6,7-Dimethoxy-1,5-naphthyridin-4-yl)oxy]-3-fluorophenyl]-5-(4-fluorophenyl)-4-hydroxypyridine-3-carboxamide], the IC50 in assay [1] and in assay [2] was below 100 nM each time.

In the case of `COc1cc2nccc(Oc3ccc(NC(=O)c4cn(C(C)C)cc(-c5ccc(F)cc5)c4=O)cc3F)c2cc1OC` [Compound 43, N-[4-(6,7-Dimethoxyquinolin-4-yl)oxy-3-fluorophenyl]-5-(4-fluorophenyl)-4-oxo-1-propan-2-ylpyridine-3-carboxamide], the IC50 in assay [1] and in assay [2] was below 100 nM throughout.

For orientation: IC50 means the concentration that gives 50% inhibition.
